We go through 6 compounds from US20220072015A1, “Methods of Inhibiting Pathological Angiogenesis” (Unity Biotechnology, Inc., priority 2017, published 2022).

Assay [1] has as its system senescent fibroblasts (SnCs), IMR90 cells. The assay can be described thus: Senolytic activity: killing irradiated senescent IMR90 fibroblasts vs replicating or quiescent fibroblasts (CellTiter-Glo). As to conditions: for Best SI: specificity for senescent cells vs replicating or quiescent fibroblasts, 1.0 = non-specific; for senolytic activity, potency: result in words. The class given is cell-based, human. The source says:
Human fibroblast IMR90 cells can be obtained from the American Type Culture Collection (ATCC®) with the designation CCL-186. The cells are maintained at <75% confluency in DMEM containing FBS and Pen/Strep in an atmosphere of 3% O2, 10% CO2, and ˜95% humidity. The cells are divided into three groups: irradiated cells (cultured for 14 days after irradiation prior to use), proliferating normal cells (cultured at low density for one day prior to use), and quiescent cells (cultured at high density for four day prior to use).
On day 0, the irradiated cells are prepared as follows. IMR90 cells are washed, placed in T175 flasks at a density of 50,000 cells per mL, and irradiated at 10-15 Gy. Following irradiation, the cells are plated at 100 μL in 96-well plates. On days 1, 3, 6, 10, and 13, the medium in each well is aspirated and replaced with fresh medium.
On day 10, the quiescent healthy cells are prepared as follows. IMR90 cells are washed, combined with 3 mL of TrypLE trypsin-containing reagent (Thermofisher Scientific, Waltham, Mass.) and cultured for 5 min until the cells have rounded up and begin to detach from the plate. Cells are dispersed, counted, and prepared in medium at a concentration of 50,000 cells per mL. 100 μL of the cells is plated in each well of a 96-well plate. Medium is changed on day 13.
On day 13, the proliferating healthy cell population is prepared as follows. Healthy IMR90 cells are washed, combined with 3 mL of TrypLE and cultured for 5 minutes until the cells have rounded up and begin to detach from the plate. Cells are dispersed, counted, and prepared in medium at a concentration of 25,000 cells per mL. 100 μL of the cells is plated in each well of a 96-well plate.
On day 14, test Bcl-2 inhibitors or MDM2 inhibitors are combined with the cells as follows. A DMSO dilution series of each test compound is prepared at 200 times the final desired concentration in a 96-well PCR plate. Immediately before use, the DMSO stocks are diluted 1:200 into prewarmed complete medium. Medium is aspirated from the cells in each well, and 100 μL/well of the compound containing medium is added.
Candidate senolytic agents for testing are cultured with the cells for 6 days, replacing the culture medium with fresh medium and the same compound concentration on day 17. Bcl-2 inhibitors like 001967 are cultured with the cells for 3 days. The assay system uses the properties of a thermostable luciferase to enable reaction conditions that generate a stable luminescent signal while simultaneously inhibiting endogenous ATPase released during cell lysis. At the end of the culture period, 100 μL of CellTiter-Glo® reagent (Promega Corp., Madison, Wis.) is added to each of the wells. The cell plates are placed for 30 seconds on an orbital shaker, and luminescence is measured.
Furthermore, even if the compound is potent, it would not be suitable for use as a therapeutic unless it preferentially kills senescent cells with a high degree of selectivity. Accordingly, compounds in the library showing high Bcl binding affinity were further screened for their ability to kill irradiated fibroblasts, in comparison with replicating fibroblasts or fibroblasts that were quiescent (due to confluence) but not senescent.
(In general: Cellular ATP, detected with luciferase, serves as a proxy for viable cell number.)

The target in assay [2] is Bcl isoforms. Description: Binding affinity for the Bcl isoforms. As to conditions: result in words. From the text:
The ability of candidate compounds to inhibit Bcl-2 and Bcl-xL activity can be measured on the molecular level by direct binding. This assay uses a homogenous assay technology based on oxygen channeling that is marketed by PerkinElmer Inc., Waltham, Mass.: see Eglin et al., Current Chemical Genomics, 2008, 1, 2-10. The test compound is combined with the target Bcl protein and a peptide representing the corresponding cognate ligand, labeled with biotin. The mixture is then combined with streptavidin bearing luminescent donor beads and luminescent acceptor beads, which proportionally reduces luminescence if the compound has inhibited the peptide from binding to the Bcl protein.
Bcl-2, Bcl-xL and Bcl-w are available from Sigma-Aldrich Co., St. Louis, Mo. Biotinylated BIM peptide (ligand for Bcl-2) and BAD peptide (ligand for Bcl-xL) are described in US 2016/0038503 A1. AlphaScreen® Streptavidin donor beads and Anti-6×His AlphaLISA® acceptor beads are available from PerkinElmer.
To conduct the assay, a 1:4 dilution series of the compound is prepared in DMSO, and then diluted 1:100 in assay buffer. In a 96-well PCR plate, the following are combined in order: 10 μL peptide (120 nM BIM or […]), 10 μL test compound, and 10 μL Bcl protein (0.8 nM Bcl-2/W or 0.4 nM Bcl-XL). The assay plate is incubated in the dark at room temperature for 24 h. The next day, donor beads and acceptor beads are combined, and 5 μL is added to each well. After incubating in the dark for 30 minute, luminescence is measured using a plate reader, and the affinity or degree of inhibition by each test compound is determined.

As for `CCn1c(C)c(C(=O)O)c(-c2cccc(N3CCN(c4ccc(NS(=O)(=O)c5ccc(N[C@H](CCN6CCC(O)CC6)CSc6ccccc6)c(S(=O)(=O)C(F)(F)F)c5)cc4)CC3)c2)c1-c1ccc(Cl)cc1` [BM-957], the “Best SI” value in assay [1] stood at 11.7. As for `Cc1c(C(=O)O)c(-c2cccc(N3CCN(c4ccc(NS(=O)(=O)c5ccc(N[C@H](CCN6CCC(O)CC6)CSc6ccccc6)c(S(=O)(=O)C(F)(F)F)c5)cc4)CC3)c2)c(-c2ccc(Cl)cc2)n1C(C)C` [BM-962], the “Best SI” value in assay [1] is given as 18.5. Consider `CCn1c(C)c(S(C)(=O)=O)c(-c2cc(F)cc(N3CCN(c4ccc(NS(=O)(=O)c5ccc(N[C@H](CCN6CCC(O)CC6)CSc6ccccc6)c(S(=O)(=O)C(F)(F)F)c5)cc4)CC3)c2)c1-c1ccc(F)cc1` [BM-1192], for which the “Best SI” value in assay [1] worked out at 60.0.

`Cc1c(S(C)(=O)=O)c(-c2cc(F)cc(N3CCN(c4ccc(NS(=O)(=O)c5ccc(N[C@H](CCN6CCC(O)CC6)CSc6ccccc6)c(S(=O)(=O)C(F)(F)F)c5)cc4)CC3)c2)c(-c2ccc(F)cc2)n1C(C)C` [BM-1195]: in assay [1], the “senolytic activity, potency” value is “potent in the nanomole range” and the “Best SI” value worked out at 128.7. For the same compound, in assay [2], the “binding affinities (Ki) for the Bcl isoforms” value (shortened to “binding affinities (Ki)”) is listed as “nanomole to picomole range”.

Take `Cc1c(S(C)(=O)=O)c(-c2cc(F)cc(N3CCN(c4ccc(NS(=O)(=O)c5ccc(N[C@H](CCN6CCC(O)CC6)CSc6ccccc6)c(S(=O)(=O)C(F)(F)F)c5)cc4)CC3)c2)c(-c2ccc(Cl)cc2)n1C(C)C` [BM-1197]: in assay [1], the “senolytic activity, potency” value is on record as “potent in the nanomole range” and the “Best SI” value was found to be 366.7. In addition, the “binding affinities (Ki)” value in assay [2] is reported as “nanomole to picomole range”. Consider `Cc1c(S(C)(=O)=O)c(-c2cc(F)cc(N3CCN(c4ccc(NS(=O)(=O)c5ccc(N[C@H](CCN6CCC(C(=O)O)CC6)CSc6ccccc6)c(S(=O)(=O)C(F)(F)F)c5)cc4)CC3)c2)c(-c2ccc(Cl)cc2)n1C(C)C` [BM-1244], for which, in assay [1], the “Best SI” value is listed as 66.7. For the same compound, in assay [2], the “binding affinities (Ki)” value is “nanomole to picomole range”.
